From the supplement of paper PMC6045584
± gives the standard deviation of the averaged measurements.

Assays:
NILOTINIB = compound: Cc1cn(-c2cc(NC(=O)c3ccc(C)c(Nc4nccc(-c5cccnc5)n4)c3)cc(C(F)(F)F)c2)cn1 [NILOTINIB]; test: surviving fraction relative to DMSO-only wells; higher = less growth inhibition; conditions: exposure time: 5 days
Procedure, shortened: (§1)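 In 384-well plates, 250–500 log-phase tumour cells per well were given 24 hours before five days of continuous exposure to inhibitors at 0.5, 1, 5, 10, 50, 100, 500 and 1000 nM. Surviving fraction is luminescence from CellTiter-Glo, normalised to the median of wells containing DMSO alone. Reading took place after 10 minutes at room temperature.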

[1] = compound: CCc1cc(Nc2nccc(-c3c(-c4ccc(OC)c(C(=O)Nc5c(F)cccc5F)c4)nc4ccccn34)n2)c(OC)cc1N1CCC(N2CCN(S(C)(=O)=O)CC2)CC1; test: as above; conditions: exposure time: 5 days
Procedure, shortened: as §1

HOS BONE
surviving fraction (NILOTINIB; 0.5 nM): 1.05 ± 0.024
surviving fraction (NILOTINIB; 1 nM): 1.014 ± 0.0049
surviving fraction (NILOTINIB; 5 nM): 1.05 ± 0.033
surviving fraction (NILOTINIB; 10 nM): 1.05 ± 0.025
surviving fraction (NILOTINIB; 50 nM): 1.065 ± 0.0095
surviving fraction (NILOTINIB; 100 nM): 1.04 ± 0.026
surviving fraction (NILOTINIB; 500 nM): 1.03 ± 0.025
surviving fraction (NILOTINIB; 1000 nM): 1.02 ± 0.041
surviving fraction ([1]; 0.5 nM): 1.008 ± 0.004
surviving fraction ([1]; 1 nM): 1.028 ± 0.0032
surviving fraction ([1]; 5 nM): 1.06 ± 0.018
surviving fraction ([1]; 10 nM): 1.05 ± 0.028
surviving fraction ([1]; 50 nM): 1.06 ± 0.026
surviving fraction ([1]; 100 nM): 1.047 ± 0.0083
surviving fraction ([1]; 500 nM): 0.956 ± 0.017
surviving fraction ([1]; 1000 nM): 0.89 ± 0.014

HOSMNG BONE
surviving fraction (NILOTINIB; 0.5 nM): 0.898 ± 0.073
surviving fraction (NILOTINIB; 1 nM): 0.97 ± 0.062
surviving fraction (NILOTINIB; 5 nM): 0.956 ± 0.044
surviving fraction (NILOTINIB; 10 nM): 0.937 ± 0.039
surviving fraction (NILOTINIB; 50 nM): 1.03 ± 0.03
surviving fraction (NILOTINIB; 100 nM): 0.957 ± 0.064
surviving fraction (NILOTINIB; 500 nM): 1.07 ± 0.029
surviving fraction (NILOTINIB; 1000 nM): 1.22 ± 0.018
surviving fraction ([1]; 0.5 nM): 0.956 ± 0.057
surviving fraction ([1]; 1 nM): 0.9987 ± 0.0055
surviving fraction ([1]; 5 nM): 0.989 ± 0.024
surviving fraction ([1]; 10 nM): 1.02 ± 0.086
surviving fraction ([1]; 50 nM): 1 ± 0.051
surviving fraction ([1]; 100 nM): 1.05 ± 0.087
surviving fraction ([1]; 500 nM): 1.05 ± 0.061
surviving fraction ([1]; 1000 nM): 1.05 ± 0.057

HSSYII SYNOVIAL
surviving fraction (NILOTINIB; 0.5 nM): 0.907 ± 0.018
surviving fraction (NILOTINIB; 1 nM): 1 ± 0.033
surviving fraction (NILOTINIB; 5 nM): 0.973 ± 0.015
surviving fraction (NILOTINIB; 10 nM): 0.987 ± 0.052
surviving fraction (NILOTINIB; 50 nM): 0.9 ± 0.061
surviving fraction (NILOTINIB; 100 nM): 0.954 ± 0.029
surviving fraction (NILOTINIB; 500 nM): 0.874 ± 0.029
surviving fraction (NILOTINIB; 1000 nM): 0.785 ± 0.036
surviving fraction ([1]; 0.5 nM): 0.917 ± 0.021
surviving fraction ([1]; 1 nM): 0.933 ± 0.033
surviving fraction ([1]; 5 nM): 1.01 ± 0.047
surviving fraction ([1]; 10 nM): 0.951 ± 0.045
surviving fraction ([1]; 50 nM): 0.915 ± 0.043
surviving fraction ([1]; 100 nM): 0.958 ± 0.037
surviving fraction ([1]; 500 nM): 0.899 ± 0.034
surviving fraction ([1]; 1000 nM): 0.798 ± 0.021

HT1080 SOFT TISSUE
surviving fraction (NILOTINIB; 0.5 nM): 1.02 ± 0.058
surviving fraction (NILOTINIB; 1 nM): 1.04 ± 0.032
surviving fraction (NILOTINIB; 5 nM): 1.06 ± 0.027
surviving fraction (NILOTINIB; 10 nM): 1.04 ± 0.011
surviving fraction (NILOTINIB; 50 nM): 0.991 ± 0.02
surviving fraction (NILOTINIB; 100 nM): 0.978 ± 0.027
surviving fraction (NILOTINIB; 500 nM): 0.98 ± 0.027
surviving fraction (NILOTINIB; 1000 nM): 0.957 ± 0.027
surviving fraction ([1]; 0.5 nM): 1.05 ± 0.037
surviving fraction ([1]; 1 nM): 1.05 ± 0.023
surviving fraction ([1]; 5 nM): 1.02 ± 0.0067
surviving fraction ([1]; 10 nM): 1.03 ± 0.031
surviving fraction ([1]; 50 nM): 1.05 ± 0.024
surviving fraction ([1]; 100 nM): 1.02 ± 0.038
surviving fraction ([1]; 500 nM): 0.9943 ± 0.0058
surviving fraction ([1]; 1000 nM): 0.946 ± 0.034

HU09 BONE
surviving fraction (NILOTINIB; 0.5 nM): 0.958 ± 0.043
surviving fraction (NILOTINIB; 1 nM): 1.06 ± 0.1
surviving fraction (NILOTINIB; 5 nM): 0.999 ± 0.096
surviving fraction (NILOTINIB; 10 nM): 1.09 ± 0.051
surviving fraction (NILOTINIB; 50 nM): 0.861 ± 0.19
surviving fraction (NILOTINIB; 100 nM): 0.756 ± 0.067
surviving fraction (NILOTINIB; 500 nM): 0.481 ± 0.014
surviving fraction (NILOTINIB; 1000 nM): 0.397 ± 0.075
surviving fraction ([1]; 0.5 nM): 0.897 ± 0.047
surviving fraction ([1]; 1 nM): 0.949 ± 0.12
surviving fraction ([1]; 5 nM): 1.08 ± 0.16
surviving fraction ([1]; 10 nM): 1.06 ± 0.032
surviving fraction ([1]; 50 nM): 1.03 ± 0.063
surviving fraction ([1]; 100 nM): 1.1 ± 0.048
surviving fraction ([1]; 500 nM): 0.88 ± 0.052
surviving fraction ([1]; 1000 nM): 0.872 ± 0.085
